Patent publication US20170190705A1, “Compositions and Methods for Inhibiting BMP” (THE BRIGHAM AND WOMAN'S HOSPITAL, INC., priority 2014, published 2017)

Experiments:
ALK5 = target: T1, ALK5 (Homo sapiens, UniProt P36897); assay: Thermal shift kinase assay ALK5; format: binding; details: for ΔTm at 10 µM: 10 μM inhibitor; for ΔT ALK5: Table 6
T1 construct: made in house
T1 sequence (P36897 34-503): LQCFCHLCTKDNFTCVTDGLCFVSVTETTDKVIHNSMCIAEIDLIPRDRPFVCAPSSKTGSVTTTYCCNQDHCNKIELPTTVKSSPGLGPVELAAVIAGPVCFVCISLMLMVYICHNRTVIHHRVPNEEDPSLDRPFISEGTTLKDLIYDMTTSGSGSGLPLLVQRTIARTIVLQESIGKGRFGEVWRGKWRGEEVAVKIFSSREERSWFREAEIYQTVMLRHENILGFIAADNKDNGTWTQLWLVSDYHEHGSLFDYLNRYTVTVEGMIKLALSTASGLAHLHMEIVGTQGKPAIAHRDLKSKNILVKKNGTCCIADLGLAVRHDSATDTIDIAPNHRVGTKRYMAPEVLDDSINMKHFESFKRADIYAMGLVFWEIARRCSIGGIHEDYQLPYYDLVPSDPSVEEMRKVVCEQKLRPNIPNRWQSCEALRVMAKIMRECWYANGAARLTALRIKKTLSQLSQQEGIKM
Description: Thermal melting experiments were performed using a Real Time PCR machine Mx3005p (Stratagene) with a protein concentration of 1-2 μM and 10 μM inhibitor as described by Niesen et al., Nat Protoc 2007, 2, 2212-21. Recombinant human kinases for DSF screening were prepared by SGC using the published methods of Sanvitale et al., PLoS One 2013, 8, e62721. The potency and selectivity of certain compounds of the invention based on thermal shift kinase and ligand induced transcriptional activity assays are shown in Table 2.

EPHB2 = target: T2, EPHB2 (Homo sapiens, UniProt P29323); assay: Kinome profiling EPHB2; format: biochemical; details: read-out: Inhibitory activity EPHB2; for inhibition at 0.1 µM: 100 nM
T2 sequence (P29323 19-1055): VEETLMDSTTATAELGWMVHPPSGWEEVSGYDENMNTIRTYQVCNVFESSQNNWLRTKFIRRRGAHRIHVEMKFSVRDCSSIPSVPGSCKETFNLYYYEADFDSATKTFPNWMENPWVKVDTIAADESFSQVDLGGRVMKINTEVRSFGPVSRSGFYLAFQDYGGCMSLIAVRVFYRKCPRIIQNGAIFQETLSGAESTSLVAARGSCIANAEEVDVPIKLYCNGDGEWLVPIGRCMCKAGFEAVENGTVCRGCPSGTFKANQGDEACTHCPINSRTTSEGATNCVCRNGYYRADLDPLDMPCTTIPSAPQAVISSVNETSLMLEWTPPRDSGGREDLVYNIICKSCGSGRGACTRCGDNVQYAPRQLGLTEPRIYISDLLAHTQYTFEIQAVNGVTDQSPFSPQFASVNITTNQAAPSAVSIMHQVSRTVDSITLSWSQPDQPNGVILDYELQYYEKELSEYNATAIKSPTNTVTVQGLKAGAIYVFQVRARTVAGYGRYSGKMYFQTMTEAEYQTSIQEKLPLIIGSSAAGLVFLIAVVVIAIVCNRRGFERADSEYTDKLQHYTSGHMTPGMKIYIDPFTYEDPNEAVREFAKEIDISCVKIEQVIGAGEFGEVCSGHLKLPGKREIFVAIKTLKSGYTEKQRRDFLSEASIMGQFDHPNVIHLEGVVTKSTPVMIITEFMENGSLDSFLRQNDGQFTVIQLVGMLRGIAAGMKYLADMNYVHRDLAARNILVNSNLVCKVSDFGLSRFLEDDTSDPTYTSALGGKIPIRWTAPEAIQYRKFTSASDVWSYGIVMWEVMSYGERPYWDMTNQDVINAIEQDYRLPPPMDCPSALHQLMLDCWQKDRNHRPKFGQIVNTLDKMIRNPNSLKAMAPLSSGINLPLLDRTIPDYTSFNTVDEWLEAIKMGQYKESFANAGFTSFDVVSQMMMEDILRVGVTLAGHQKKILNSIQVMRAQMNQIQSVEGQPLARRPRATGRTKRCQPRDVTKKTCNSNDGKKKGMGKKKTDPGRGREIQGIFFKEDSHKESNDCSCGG
Description: (§1) . The kinome-wide selectivity was determined following the methods previously reported by Mohedas et al., ACS Chem Biol 2013, 8, 1291-1302 and Sanvitale et al., PLoS One 2013, 8, e62721.

EGFR = EGFR (Homo sapiens, UniProt P00533); assay: Kinome profiling EGFR; format: biochemical; details: read-out: Inhibitory activity EGFR; for inhibition at 0.1 µM: 100 nM
Description: as §1

TRKA = TRKA (Homo sapiens, UniProt P04629); assay: Kinome profiling TRKA; format: biochemical; details: read-out: Inhibitory activity TRKA; for inhibition at 0.1 µM: 100 nM
Description: as §1

SGK1 = target: T3, SGK1 (Homo sapiens, UniProt O00141); assay: Kinome profiling SGK1; format: biochemical; details: read-out: Inhibitory activity SGK1; for inhibition at 0.1 µM: 100 nM
T3 sequence (O00141 1-431): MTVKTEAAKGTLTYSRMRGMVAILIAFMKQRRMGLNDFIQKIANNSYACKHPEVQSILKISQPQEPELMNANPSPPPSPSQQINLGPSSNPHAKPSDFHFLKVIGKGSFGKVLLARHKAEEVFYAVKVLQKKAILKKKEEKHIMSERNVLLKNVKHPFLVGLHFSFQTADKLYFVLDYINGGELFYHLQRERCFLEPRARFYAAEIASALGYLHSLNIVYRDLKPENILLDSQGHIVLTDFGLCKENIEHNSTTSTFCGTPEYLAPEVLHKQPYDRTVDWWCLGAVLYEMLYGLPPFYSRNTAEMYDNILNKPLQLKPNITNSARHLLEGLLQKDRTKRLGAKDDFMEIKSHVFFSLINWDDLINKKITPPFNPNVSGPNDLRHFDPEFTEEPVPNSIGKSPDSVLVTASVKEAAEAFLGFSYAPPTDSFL
Description: as §1

PRKX = target: T4, PRKX (Homo sapiens, UniProt P51817); assay: Kinome profiling PRKX; format: biochemical; details: read-out: Inhibitory activity PRKX; for inhibition at 0.1 µM: 100 nM
T4 sequence (P51817 1-358): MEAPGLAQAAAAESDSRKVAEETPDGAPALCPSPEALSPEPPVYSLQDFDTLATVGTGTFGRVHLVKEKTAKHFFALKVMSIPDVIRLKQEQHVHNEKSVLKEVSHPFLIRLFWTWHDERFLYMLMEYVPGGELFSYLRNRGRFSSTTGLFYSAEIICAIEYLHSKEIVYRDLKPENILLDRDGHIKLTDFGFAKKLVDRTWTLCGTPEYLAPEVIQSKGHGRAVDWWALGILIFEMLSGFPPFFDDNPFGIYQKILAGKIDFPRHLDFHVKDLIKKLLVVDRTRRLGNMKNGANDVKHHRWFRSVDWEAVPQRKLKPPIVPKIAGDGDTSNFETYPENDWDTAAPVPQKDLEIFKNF
Description: as §1

Sequence of TRKA (P04629 33-796): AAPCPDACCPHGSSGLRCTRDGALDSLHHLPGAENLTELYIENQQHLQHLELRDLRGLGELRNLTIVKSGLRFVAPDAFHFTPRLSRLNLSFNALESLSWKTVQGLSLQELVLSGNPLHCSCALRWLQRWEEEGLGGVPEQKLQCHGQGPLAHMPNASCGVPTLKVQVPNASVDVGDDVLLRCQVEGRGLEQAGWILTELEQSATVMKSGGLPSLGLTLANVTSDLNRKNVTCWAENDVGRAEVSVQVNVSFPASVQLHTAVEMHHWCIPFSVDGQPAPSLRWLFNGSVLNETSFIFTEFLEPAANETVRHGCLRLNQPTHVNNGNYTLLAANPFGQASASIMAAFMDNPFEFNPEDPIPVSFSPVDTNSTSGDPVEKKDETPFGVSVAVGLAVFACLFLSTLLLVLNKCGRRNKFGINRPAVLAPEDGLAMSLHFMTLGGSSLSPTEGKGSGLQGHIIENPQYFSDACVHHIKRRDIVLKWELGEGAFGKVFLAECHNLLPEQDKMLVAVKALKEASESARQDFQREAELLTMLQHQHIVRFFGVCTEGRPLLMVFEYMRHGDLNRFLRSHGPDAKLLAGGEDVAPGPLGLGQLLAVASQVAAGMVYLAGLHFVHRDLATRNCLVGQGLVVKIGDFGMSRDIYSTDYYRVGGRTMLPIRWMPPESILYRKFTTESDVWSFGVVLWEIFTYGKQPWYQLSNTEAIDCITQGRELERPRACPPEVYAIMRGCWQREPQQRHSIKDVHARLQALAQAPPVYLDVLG
Sequence of EGFR (P00533 25-1210): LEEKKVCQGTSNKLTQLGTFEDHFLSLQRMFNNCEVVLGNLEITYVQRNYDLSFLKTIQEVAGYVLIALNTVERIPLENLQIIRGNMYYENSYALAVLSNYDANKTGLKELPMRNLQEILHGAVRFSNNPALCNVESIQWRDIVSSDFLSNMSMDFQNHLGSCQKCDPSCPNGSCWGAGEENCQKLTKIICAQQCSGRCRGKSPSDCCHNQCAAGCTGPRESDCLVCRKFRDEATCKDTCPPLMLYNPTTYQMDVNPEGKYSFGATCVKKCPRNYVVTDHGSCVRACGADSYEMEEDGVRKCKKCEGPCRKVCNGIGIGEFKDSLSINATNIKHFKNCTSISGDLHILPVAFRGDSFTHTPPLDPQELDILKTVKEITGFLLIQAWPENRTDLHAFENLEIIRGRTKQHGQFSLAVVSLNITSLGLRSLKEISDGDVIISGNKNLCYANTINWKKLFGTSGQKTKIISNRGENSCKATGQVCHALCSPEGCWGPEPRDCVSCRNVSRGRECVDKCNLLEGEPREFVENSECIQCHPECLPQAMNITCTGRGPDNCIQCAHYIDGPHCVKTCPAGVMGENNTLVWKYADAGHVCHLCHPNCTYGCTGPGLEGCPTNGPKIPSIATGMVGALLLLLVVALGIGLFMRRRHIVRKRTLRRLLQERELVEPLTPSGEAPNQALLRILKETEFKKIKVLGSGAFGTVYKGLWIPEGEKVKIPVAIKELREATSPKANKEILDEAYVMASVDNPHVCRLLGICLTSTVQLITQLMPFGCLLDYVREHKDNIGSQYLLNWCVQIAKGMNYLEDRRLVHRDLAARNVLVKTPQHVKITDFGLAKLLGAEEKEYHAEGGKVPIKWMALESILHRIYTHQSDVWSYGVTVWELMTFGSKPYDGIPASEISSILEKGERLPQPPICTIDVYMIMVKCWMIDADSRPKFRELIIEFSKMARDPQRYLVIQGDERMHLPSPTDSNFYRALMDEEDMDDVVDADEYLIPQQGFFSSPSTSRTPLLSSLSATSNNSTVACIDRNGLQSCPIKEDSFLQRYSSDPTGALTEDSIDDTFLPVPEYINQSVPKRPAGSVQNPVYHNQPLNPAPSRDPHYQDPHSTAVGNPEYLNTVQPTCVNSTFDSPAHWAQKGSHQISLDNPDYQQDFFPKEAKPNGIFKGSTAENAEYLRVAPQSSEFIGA

Structure (SMILES) | ΔTm at 10 µM (ALK5) [°C] | ΔT ALK5 (ALK5) [°C] | inhibition at 0.1 µM (EPHB2) [%] | inhibition at 1 µM (EPHB2) [%] | inhibition at 0.1 µM (EGFR) [%] | inhibition at 1 µM (EGFR) [%] | inhibition at 0.1 µM (TRKA) [%] | inhibition at 1 µM (TRKA) [%] | inhibition at 0.1 µM (SGK1) [%] | inhibition at 1 µM (SGK1) [%] | inhibition at 0.1 µM (PRKX) [%] | inhibition at 1 µM (PRKX) [%]
COc1cc(-c2cc(-c3ccc(N4CCNCC4)cc3)cnc2C)cc(OC)c1OC [Compound 10, 1-(4-(6-methyl-5-(3,4,5-trimethoxyphenyl)pyridin-3-yl)phenyl)piperazine] | 9.7 | 9.7 | 5 | 15 | 3 | 16 | 2 | 1 | 2 | 1 | 0 | 1
COc1cc(-c2cc(-c3ccc(N4CCNCC4)cc3)cnc2N)cc(OC)c1OC [Compound 15, 5-(4-(piperazin-1-yl)phenyl)-3-(3,4,5-trimethoxyphenyl)pyridin-2-amine] | 13.9 | 13.9 | 22 | 70 | 8 | 37 | 5 | 5 | 3 | 1 | 1 | 0
